Data taken from patent US12319693B2, “Crystalline forms of CFTR modulators” (Vertex Pharmaceuticals Incorporated, priority 2019, dated 2025).

What was measured:
[1] = target: T1, F508del CFTR (Homo sapiens, UniProt P13569, DEL508-508); test: Ussing chamber chloride transport in F508del/F508del HBE cells; assay type: cell-based; conditions: for chloride transport (effect in words): Compound I alone 16 to 24 h, Compound III added in the presence of Compound I or Compound I/Compound II
T1 construct: HBE cells derived from 3 F508del homozygous donors and 5 F508del/MF donors; endogenous in cells; host or cells: primary HBE cells from F508del/F508del and F508del/MF donors
Protocol: (§1) Ussing chamber studies were conducted to measure F508del CFTR-mediated chloride transport in HBE cells derived from 3 F508del homozygous donors and 5 F508del/MF donors (G542X, 3 donors; E585X, 1 donor; 3905InsT, 1 donor). As a positive control, maximally effective concentrations of N-(benzenesulfonyl)-6-[3-[2-[1-(trifluoromethyl)cyclopropyl]ethoxy]pyrazol-1-yl]-2-[(4S)-2,2,4-trimethylpyrrolidin-1-yl]pyridine-3-carboxamide (see WO 2018/064632) and N-[(6-amino-2-pyridyl)sulfonyl]-6-(3-fluoro-5-isobutoxy-phenyl)-2-[(4S)-2,2,4-trimethylpyrrolidin-1-yl]pyridine-3-carboxamide (see WO 2016/057572) in combination with Compound II/Compound III were included in each experiment.
(§2) In these CF cell lines, CFTR-mediated chloride transport was low in the absence of CFTR modulators, which is consistent with little-to-no CFTR at the cell surface. […] However, the efficacy of Compound I/Compound III and Compound I/Compound II/Compound III was similar at their respective EC90 values.

[2] = target: T1, F508del CFTR; test: Ussing chamber chloride transport in F508del/MF HBE cells; assay type: cell-based; conditions: for chloride transport (effect in words): Compound I alone 16 to 24 h, Compound III added in the presence of Compound I or Compound I/Compound II
Protocol: as §1, §2

[3] = Relative stability of polymorphic / solvate forms; assay type: physicochemical; conditions: water activity ≤0.95 at ambient temperature
[4] = Pharmacokinetics after a single oral administration in male rats; assay type: in vivo
Protocol: (§3) Following a single oral administration of Compound I in male animals, Compound I mean tmax values were 9 h in rats, 4 h in dogs, and 3 h in monkeys.

[5] = target: CFTR-mediated chloride transport (Homo sapiens, UniProt P13569); test: Membrane potential dye assay in human intestinal epithelial enteroid cells; assay type: cell-based; conditions: 18-24 h incubation, acute 10 μM forskolin + 300 nM Compound III
Protocol: Base medium (ADF+++) consisted of Advanced DMEM/Ham's F12, 2 mM Glutamax, 10 mM HEPES, 1μ/ml penicillin/streptomycin.
Intestinal enteroid maintenance medium (IEMM) consisted of ADF+++, 1×B27 supplement, 1×N2 supplement, 1.25 mM N-acetyl cysteine, 10 mM Nicotinamide, 50 ng/mL hEGF, 10 nM Gastrin, 1 μg/mL hR-spondin-1, 100 ng/mL hNoggin, TGF-b type 1 inhibitor A-83-01, 100 μg/mL Primocin, 10 μM P38 MAPK inhibitor SB202190.
Bath 1 Buffer consisted of 1 mM MgCl2, 160 mM NaCl, 4.5 mM KCl, 10 mM HEPES, 10 mM Glucose, 2 mM CaCl2).
Chloride Free Buffer consisted of 1 mM Magnesium Gluconate, 2 mM Calcium Gluconate, 4.5 mM Potassium Gluconate, 160 mM Sodium Gluconate, 10 mM HEPES, 10 mM Glucose.
Bath1 Dye Solution consisted of Bath 1 Buffer, 0.04% Pluronic F127, 20 μM Methyl Oxonol, 30 μM CaCCinh-A01, 30 μM Chicago Sky Blue. […]
Enteroid cells were incubated with test compound in IEMM for 18-24 h at 37° C., 95% humidity and 5% CO2. […] Chloride transport was initiated by addition of Chloride Free Dye Stimulation Solution and the fluorescence signal was read for 15 min. […] Chloride transport was then expressed as a percentage of the chloride transport following treatment with 3 μM Compound I, 3 μM Compound II, and 300 nM acute Compound III triple combination control (% Activity). […]

[6] = Pharmacokinetics after a single oral administration in male dogs; assay type: in vivo; conditions: nominal dose 1 mg/kg
Protocol: as §3

[7] = Safety analysis of ongoing clinical study (Cohorts A1 to A5, B, C); assay type: in vivo, human
Protocol: A safety analysis of an ongoing clinical study was performed for 37 subjects in Cohorts A1 to A5, 33 subjects in Cohort B, and 17 subjects in Cohort C, who were exposed to at least 1 dose of study drug (Compound I or placebo) as a monotherapy and as part of a triple combination with Compound II or Compound III.

[8] = Pharmacokinetics after a single oral administration in male monkeys; assay type: in vivo; conditions: nominal dose 1 mg/kg, oral bioavailability
Protocol: as §3

[9] = Systemic exposure with increasing dose and repeated oral administration for 28 d in rats; assay type: in vivo
Protocol: (§4) Following repeated oral administration of Compound I for 28 d in rats and dogs, accumulation of Compound I exposure was observed. Systemic exposure to Compound I on Day 28 was higher than on Day 1 (Day 28/Day 1 AUC024h ratio ranged from 1.63 to 2.70 in male rats, 5.01 to 8.26 in female rats, 1.73 to 2.64 in male dogs, and 1.82 to 2.23 in female dogs).

[10] = Systemic exposure with increasing dose and repeated oral administration for 28 d in dogs; assay type: in vivo; conditions: as the dose increased
Protocol: as §4

[11] = with a fixed combination of Compound II
[12] = with a fixed concentration of Compound III or Compound II/Compound III

T1 sequence (P13569 with tags, fused parts or gaps DEL508-508): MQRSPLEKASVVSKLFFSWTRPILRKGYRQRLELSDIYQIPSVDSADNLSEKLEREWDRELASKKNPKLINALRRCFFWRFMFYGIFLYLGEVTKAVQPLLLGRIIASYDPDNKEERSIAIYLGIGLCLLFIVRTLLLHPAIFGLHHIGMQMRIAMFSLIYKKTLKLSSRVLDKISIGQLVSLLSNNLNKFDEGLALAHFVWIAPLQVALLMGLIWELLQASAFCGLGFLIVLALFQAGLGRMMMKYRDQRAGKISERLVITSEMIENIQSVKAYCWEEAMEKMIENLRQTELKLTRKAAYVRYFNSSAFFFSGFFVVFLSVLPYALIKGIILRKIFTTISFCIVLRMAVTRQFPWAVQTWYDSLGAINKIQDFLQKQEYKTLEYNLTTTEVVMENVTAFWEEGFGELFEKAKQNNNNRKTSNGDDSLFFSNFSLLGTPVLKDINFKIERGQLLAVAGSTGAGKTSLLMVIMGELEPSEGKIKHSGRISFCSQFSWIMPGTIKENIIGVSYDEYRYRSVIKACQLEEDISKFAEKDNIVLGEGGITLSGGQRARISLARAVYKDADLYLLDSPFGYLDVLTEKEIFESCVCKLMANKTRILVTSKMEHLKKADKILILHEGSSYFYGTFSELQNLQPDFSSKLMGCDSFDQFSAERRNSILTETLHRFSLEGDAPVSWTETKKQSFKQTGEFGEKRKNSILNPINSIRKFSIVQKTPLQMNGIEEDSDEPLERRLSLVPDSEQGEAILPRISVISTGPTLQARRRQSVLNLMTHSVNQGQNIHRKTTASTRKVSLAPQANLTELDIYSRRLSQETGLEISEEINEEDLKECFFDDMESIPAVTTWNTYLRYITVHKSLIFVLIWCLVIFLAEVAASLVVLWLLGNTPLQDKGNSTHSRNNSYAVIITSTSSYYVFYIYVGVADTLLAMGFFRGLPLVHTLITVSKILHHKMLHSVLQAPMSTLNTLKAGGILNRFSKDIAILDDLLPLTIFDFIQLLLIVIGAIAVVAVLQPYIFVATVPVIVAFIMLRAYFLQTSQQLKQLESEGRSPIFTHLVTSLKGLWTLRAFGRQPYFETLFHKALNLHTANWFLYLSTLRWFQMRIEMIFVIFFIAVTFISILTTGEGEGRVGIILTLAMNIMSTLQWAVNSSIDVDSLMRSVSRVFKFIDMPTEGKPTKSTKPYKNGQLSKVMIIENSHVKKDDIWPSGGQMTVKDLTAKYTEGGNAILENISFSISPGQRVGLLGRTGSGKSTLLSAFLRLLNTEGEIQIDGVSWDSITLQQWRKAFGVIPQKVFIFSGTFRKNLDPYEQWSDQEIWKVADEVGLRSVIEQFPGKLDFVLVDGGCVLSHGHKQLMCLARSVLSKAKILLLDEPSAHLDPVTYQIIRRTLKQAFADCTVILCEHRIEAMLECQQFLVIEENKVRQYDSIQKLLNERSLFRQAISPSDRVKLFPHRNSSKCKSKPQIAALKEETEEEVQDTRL
CFTR-mediated chloride transport, sequence (P13569 whole entry): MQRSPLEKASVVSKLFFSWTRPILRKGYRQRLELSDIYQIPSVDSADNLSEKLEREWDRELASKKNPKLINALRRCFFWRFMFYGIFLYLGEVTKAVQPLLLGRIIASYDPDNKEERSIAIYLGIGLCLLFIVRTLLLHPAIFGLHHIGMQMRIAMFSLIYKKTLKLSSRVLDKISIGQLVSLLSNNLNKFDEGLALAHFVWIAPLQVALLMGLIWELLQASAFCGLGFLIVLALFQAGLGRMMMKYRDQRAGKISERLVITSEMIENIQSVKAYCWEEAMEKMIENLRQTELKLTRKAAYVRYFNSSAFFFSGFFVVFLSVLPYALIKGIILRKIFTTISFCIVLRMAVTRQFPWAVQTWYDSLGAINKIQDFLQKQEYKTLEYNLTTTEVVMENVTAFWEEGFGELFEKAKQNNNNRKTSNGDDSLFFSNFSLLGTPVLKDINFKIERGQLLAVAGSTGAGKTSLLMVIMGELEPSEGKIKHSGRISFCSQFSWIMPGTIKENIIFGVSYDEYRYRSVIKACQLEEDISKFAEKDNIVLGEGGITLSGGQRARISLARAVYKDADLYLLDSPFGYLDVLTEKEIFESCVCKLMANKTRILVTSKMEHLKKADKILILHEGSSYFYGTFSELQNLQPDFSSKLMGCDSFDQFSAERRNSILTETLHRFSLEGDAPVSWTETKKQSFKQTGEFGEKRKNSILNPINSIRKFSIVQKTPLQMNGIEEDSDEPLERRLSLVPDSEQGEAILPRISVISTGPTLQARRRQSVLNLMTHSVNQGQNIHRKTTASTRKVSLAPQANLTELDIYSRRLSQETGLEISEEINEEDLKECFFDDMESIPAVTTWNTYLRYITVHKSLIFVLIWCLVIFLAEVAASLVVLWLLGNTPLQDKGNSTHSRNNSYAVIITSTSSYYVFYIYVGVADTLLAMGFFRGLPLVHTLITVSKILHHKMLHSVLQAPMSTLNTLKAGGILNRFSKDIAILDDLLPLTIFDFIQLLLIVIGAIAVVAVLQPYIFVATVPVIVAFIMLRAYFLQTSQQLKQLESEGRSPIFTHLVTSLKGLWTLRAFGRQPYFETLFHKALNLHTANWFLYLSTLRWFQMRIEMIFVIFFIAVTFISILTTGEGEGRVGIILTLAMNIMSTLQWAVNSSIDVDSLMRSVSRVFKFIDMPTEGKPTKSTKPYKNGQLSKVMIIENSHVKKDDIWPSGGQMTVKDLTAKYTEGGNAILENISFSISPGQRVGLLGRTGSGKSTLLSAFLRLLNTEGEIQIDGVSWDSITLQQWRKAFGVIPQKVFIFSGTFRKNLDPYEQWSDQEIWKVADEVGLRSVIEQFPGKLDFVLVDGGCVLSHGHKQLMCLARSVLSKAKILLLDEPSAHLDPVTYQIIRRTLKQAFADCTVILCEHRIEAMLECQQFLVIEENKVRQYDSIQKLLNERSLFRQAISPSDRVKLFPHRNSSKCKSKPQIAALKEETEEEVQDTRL

Row | SMILES | chloride transport (effect in words) [1] | chloride transport (effect in words) [2] | relative polymorphic stability [3] | F ([4]; nominal dose 3 mg/kg, oral bioavailability) [%] | bioavailability ([4]; rat, in vivo, 3 mg/kg, read-out: Mean oral bioavailability (F)) [%] | EC50 [5] [nM] | Max. Activity ([5]; % of chloride transport with 3 μM Compound I, 3 μM Compound II, 300 nM acute Compound III control) | tmax ([6]; mean ± SD (n = 3)) [h] | F ([6]; oral bioavailability) [%] | safety and tolerability ([7]; up to 20 mg qd in triple combination with Compound II and Compound III) | safety and tolerability ([7]; up to a dose of 60 mg qd in monotherapy) | F [8] [%] | synergy analysis [1, 11] | synergy analysis [1, 12] | Dosenormalized exposure, sex difference [9] | increase of systemic exposure with dose ([9]; as the dose increased) | increase of systemic exposure with dose [10] | synergy analysis [2, 11] | synergy analysis [2, 12]
1 | CC(C)(C)c1cc(C(C)(C)C)c(NC(=O)c2c[nH]c3ccccc3c2=O)cc1O [Compound III, N-[2,4-bis(1,1-dimethylethyl)-5-hydroxyphenyl]-1,4-dihydro-4-oxoquinoline-3-carboxamide, reference compound] | strongly potentiated chloride transport | strongly potentiated chloride transport | – | – | – | – | – | – | – | – | – | – | – | – | – | – | – | – | –
2 | CC1(C)C[C@@H]2CCCNc3cccc(n3)S(=O)(=O)NC(=O)c3ccc(-n4ccc(OCCC5C6(CC6)C56CC6)n4)nc3N1C2 [Compound I free Form A] | – | – | most stable polymorphic form | – | – | – | – | – | – | – | – | – | – | – | – | – | – | – | –
3 | CC1(C)C[C@@H]2CCCNc3cccc(n3)S(=O)(=O)NC(=O)c3ccc(-n4ccc(OCCC5C6(CC6)C56CC6)n4)nc3N1C2 [Compound I, (14S)-8-[3-(2-{Dispiro[2.0.2.1]heptan-7-yl}ethoxy)-1H-pyrazol-1-yl]-12,12-dimethyl-2λ6-thia-3,9,11,18,23-pentaazatetracyclo[17.3.1.111,14.05,10]tetracosa-1(22),5,7,9,19(23),20-hexaene-2,2,4-trione] | modest increase in chloride transport | modest increase in chloride transport | – | 76.9 | 76.9 | < 1000 | +++ (+++ is >60%) | 4.00 ± 0.00 | 49.7 | generally safe and well-tolerated | generally safe and well-tolerated | 12.9 | modestly synergistic | highly synergistic | higher in female rats than male rats | more than doseproportional | more than doseproportional | modestly synergistic | highly synergistic
